From patent US12336991B2, “Factor XIIA inhibitors” (UNIVERSITY OF LEEDS, priority 2018, dated 2025)

Legend:
Assay type in all cases: biochemical
[1] = molecular target: T1, FXIIa (Homo sapiens, UniProt P00748); experiment: Determination of Factor XIIa inhibition, chromogenic substrate S-2302 assay; conditions: human FXIIa alpha
T1 sequence (P00748 373-615 limits assumed): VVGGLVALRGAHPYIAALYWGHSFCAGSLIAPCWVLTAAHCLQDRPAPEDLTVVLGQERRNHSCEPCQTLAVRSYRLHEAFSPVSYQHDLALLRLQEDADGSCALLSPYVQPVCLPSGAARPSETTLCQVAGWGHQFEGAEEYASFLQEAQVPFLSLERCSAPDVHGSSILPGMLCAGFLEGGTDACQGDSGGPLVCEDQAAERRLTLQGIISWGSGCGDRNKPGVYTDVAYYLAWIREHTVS
T1 sequence (P00748 20-372 partner limits assumed): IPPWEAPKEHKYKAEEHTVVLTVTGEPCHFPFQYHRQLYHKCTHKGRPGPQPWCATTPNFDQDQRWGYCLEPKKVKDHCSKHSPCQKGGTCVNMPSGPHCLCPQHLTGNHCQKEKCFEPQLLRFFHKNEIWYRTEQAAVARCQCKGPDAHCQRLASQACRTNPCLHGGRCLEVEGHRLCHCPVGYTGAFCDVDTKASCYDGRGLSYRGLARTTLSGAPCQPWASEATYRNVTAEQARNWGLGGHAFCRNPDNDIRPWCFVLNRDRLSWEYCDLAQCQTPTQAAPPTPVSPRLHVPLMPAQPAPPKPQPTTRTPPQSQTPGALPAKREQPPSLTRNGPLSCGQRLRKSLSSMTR
Procedure, shortened: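 FXIIa (10 nM) preincubated with compound 10 min at 37° C. in 50 mM Tris, 137 mM NaCl pH 7.4, 5% DMSO, top concentration 500 μM, then S-2302 added ([…]). Absorbance at 405 nm read kinetically for 3 h; IC50 from initial rates, converted to Ki by Cheng-Prusoff.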

[2] = molecular target: T2, thrombin (Homo sapiens, UniProt P00734); experiment: Determination of selectivity: thrombin inhibition, chromogenic substrate GPR assay; conditions: fold selectivity for FXIIa over thrombin
T2 construct: FXa (5 nM) and thrombin (5 nM)
Procedure, shortened: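 Thrombin (5 nM) preincubated with compound 10 min at 37 °C in 50 mM Tris, 137 mM NaCl, pH 7.4, 5% DMSO, then GPR substrate ([…]) added. Absorbance at 405 nm read kinetically for 3 h; IC50 from initial rates, converted to Ki via Ki=IC50/(1+[S]/Km).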

[3] = molecular target: FXa (Homo sapiens, UniProt P00742); experiment: Determination of selectivity: FXa inhibition, chromogenic substrate S2765 assay; conditions: fold selectivity for FXIIa over FXa
Procedure, shortened: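 Human FXa (5 nM) preincubated with compound (top 500 μM, 5% DMSO) 10 min at 37 °C in 50 mM Tris, 137 mM NaCl pH 7.4, then S2765 ([…]) added; A405 kinetics over 3 h at 37 °C. IC50 from initial rates, converted to Ki via Cheng-Prusoff.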

Sequence of FXa (P00742 235-488 limits assumed): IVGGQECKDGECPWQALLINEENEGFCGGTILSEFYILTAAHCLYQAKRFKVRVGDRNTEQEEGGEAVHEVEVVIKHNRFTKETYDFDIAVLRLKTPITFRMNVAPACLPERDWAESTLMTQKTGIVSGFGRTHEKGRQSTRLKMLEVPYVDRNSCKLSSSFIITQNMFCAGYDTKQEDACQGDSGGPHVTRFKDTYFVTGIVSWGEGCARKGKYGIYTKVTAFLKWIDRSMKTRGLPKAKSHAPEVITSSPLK
Sequence of FXa (P00742 41-179 partner limits assumed): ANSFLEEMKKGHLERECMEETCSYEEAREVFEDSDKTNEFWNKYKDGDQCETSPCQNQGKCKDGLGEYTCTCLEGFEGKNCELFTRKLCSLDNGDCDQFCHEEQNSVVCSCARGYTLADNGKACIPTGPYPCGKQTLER

| Ki [1] [µM] | FXa (human)/FXIIa alpha (human) [3] | SMILES | Thrombin (human)/FXIIa alpha (human) [2] |
| --- | --- | --- | --- |
| 0.2 to 2 | ∘∘∘ | Cn1ccnc1CC1C[C@@H](C(=O)NCc2ccc3c(c2)nnn3C)N(C(=O)[C@H](N)CCC(=O)N2CCCC2)C1 (stereo partly drawn) [Example M05297] | +++ (fold selectivity values greater than 100) |
| 0.2 to 2 | ∘∘∘ | NCc1ccc(CNC(=O)[C@@H]2C[C@@H](Cc3ccncc3)CN2C(=O)[C@H](N)CCc2ccccc2)cc1 [Example M05156] | + (fold selectivity values less than 10) |
| 0.2 to 2 | ∘∘∘ | Cn1nnc2cc(CNC(=O)[C@@H]3CC(Cc4cccc(C#N)c4)CN3C(=O)[C@H](N)CCC(=O)N3CCCC3)ccc21 (stereo partly drawn) [Example M05319] | +++ (fold selectivity values greater than 100) |
| > 2 | ∘∘ | Cn1nnc2cc(CNC(=O)[C@@H]3C[C@H](c4ccc(F)cc4)CN3C(=O)[C@H](N)CCc3ccccc3)ccc21 [Example M05157] | ++ (fold selectivity value of 10 to 100) |
| < 0.2 | ∘∘∘ | Cn1nnc2cc(CNC(=O)[C@@H]3C[C@@H](Cc4ccc(C(F)(F)F)cc4)CN3C(=O)[C@H](N)CCC(=O)N3CCCC3)ccc21 [Example M05336] | +++ (fold selectivity values greater than 100) |
| 0.2 to 2 | ∘∘∘ | COc1ccc(C[C@@H]2C[C@@H](C(=O)NCc3ccc4c(c3)nnn4C)N(C(=O)[C@H]3C[C@@H](n4ccccc4=O)CN3)C2)cc1 [Example M00958] | +++ (fold selectivity values greater than 100) |
| 0.2 to 2 | ∘∘∘ | Cn1nnc2cc(CNC(=O)[C@@H]3C[C@H](Cc4cccc(Cl)c4)CN3C(=O)[C@H](N)CCC(=O)N3CCCC3)ccc21 [Example M05210, (2S,4S)-1-((R)-2-amino-5-oxo-5-pyrrolidin-1-yl-pentanoyl)-4-(3-chloro-benzyl)-pyrrolidine-2-carboxylic acid (1-methyl-1H-benzotriazol-5-ylmethyl)-amide] | +++ (fold selectivity values greater than 100) |
| > 2 | ∘∘ | NCc1ccc(CNC(=O)[C@@H]2CCCN2C(=O)[C@H](N)CCC(=O)N2CC=CC2)cc1 [Example M00922] | + (fold selectivity values less than 10) |
| < 0.2 | ∘∘∘ | Cn1nnc2cc(CNC(=O)[C@@H]3C[C@@H](Cc4cccc(Cl)c4)CN3C(=O)[C@H](N)CCC(=O)N3CCCC3)ccc21 [Example M05190] | +++ (fold selectivity values greater than 100) |
| > 2 | ∘∘ | Cn1nnc2cc(CNC(=O)[C@@H]3CC(NCC4CCCCC4)CN3C(=O)[C@H](N)CCc3ccccc3)ccc21 (stereo partly drawn) [Example M05204] | ++ (fold selectivity value of 10 to 100) |
| < 0.2 | ∘∘∘ | COc1ccc(C[C@@H]2C[C@@H](C(=O)NCc3ccc4c(c3)nnn4C)N(C(=O)[C@H](N)CCC(=O)N3CCC[C@H]3C(C)C)C2)cc1 [Example M05407] | +++ (fold selectivity values greater than 100) |
| 0.2 to 2 | ∘∘∘ | CCOc1ccc(C[C@@H]2C[C@@H](C(=O)NCc3ccc4c(c3)nnn4C)N(C(=O)[C@H]3C[C@@H](c4ccccc4)CN3)C2)cc1 [Example M05382] | +++ (fold selectivity values greater than 100) |
| > 2 | ∘∘ | COc1ccc(C[C@@H]2C[C@@H](C(=O)NCc3ccc4c(c3)nnn4C)N(C(=O)[C@H]3CC(c4cn[nH]c4)CN3)C2)cc1 (stereo partly drawn) [Example M05454] | ++ (fold selectivity value of 10 to 100) |
| 0.2 to 2 | ∘∘ | Cn1nnc2cc(CNC(=O)[C@@H]3C[C@@H](Cc4cccc(Br)c4)CN3C(=O)[C@H]3C[C@@H](c4ccccc4)CN3)ccc21 [Example M05366] | ++ (fold selectivity value of 10 to 100) |
| < 0.2 | ∘∘∘ | COc1ccc(C[C@@H]2C[C@@H](C(=O)NCc3cc4ccncc4[nH]3)N(C(=O)[C@H](N)CCC(=O)N3CCCC3)C2)cc1 [Example M00952] | +++ (fold selectivity values greater than 100) |
| < 0.2 | ∘∘∘ | Cc1ccc(C[C@@H]2C[C@@H](C(=O)NCc3cc4cnccc4[nH]3)N(C(=O)[C@H](N)CCC(=O)N3CCCC3)C2)cc1 [Example M00968] | +++ (fold selectivity values greater than 100) |
| < 0.2 | ∘∘∘ | Cn1ncc2cc(CNC(=O)[C@@H]3C[C@@H](Cc4ccncc4)CN3C(=O)[C@H](N)CCC(=O)N3CCCC3)ccc21 [Example M05244] | +++ (fold selectivity values greater than 100) |
| 0.2 to 2 | ∘∘∘ | COc1ccc(CC2C[C@@H](C(=O)NCc3ccc4c(c3)nnn4C)N(C(=O)[C@H]3C[C@@H](c4ccccc4)CN3)C2)cc1OC (stereo partly drawn) [Example M05348] | +++ (fold selectivity values greater than 100) |
| > 2 | ∘∘ | N#C[C@@H]1C[C@@H](C(=O)NCc2ccc(CN)cc2)N(C(=O)[C@H](N)CCc2ccccc2)C1 [Example M05091, (2S,4R)-1-((R)-2-Amino-4-phenyl-butyryl)-4-cyano-pyrrolidine-2-carboxylic acid 4-aminomethyl-benzylamide] | + (fold selectivity values less than 10) |
| > 2 | ∘∘ | NCc1ccc(CNC(=O)[C@@H]2CCCN2C(=O)[C@H](N)CCc2cccnc2)cc1 [Example M00808] | + (fold selectivity values less than 10) |
| < 0.2 | ∘∘∘ | COc1ccc(C[C@@H]2C[C@@H](C(=O)NCc3ccc4c(c3)nnn4C)N(C(=O)[C@H](N)CCC(=O)N3CCCNCC3)C2)cc1 [Example M05461] | +++ (fold selectivity values greater than 100) |
| < 0.2 | ∘∘∘ | COc1ccc(C[C@@H]2C[C@@H](C(=O)NCc3ccc4c(c3)nnn4C)N(C(=O)[C@H](N)CCc3ccccn3)C2)cc1 [Example M05453] | +++ (fold selectivity values greater than 100) |
| 0.2 to 2 | ∘∘∘ | COc1ccc(C[C@@H]2C[C@@H](C(=O)NCc3ccc4c(c3)nnn4C)N(C(=O)[C@H]3CC(c4ccccc4OC)CN3)C2)cc1 (stereo partly drawn) [Example M05378] | ++ (fold selectivity value of 10 to 100) |
| > 2 | ∘∘ | COc1ccc(C[C@@H]2C[C@@H](C(=O)NCc3ccc4c(c3)nnn4C)N(C(=O)[C@H]3C[C@@H](Oc4ccccc4)CN3)C2)cc1 [Example M05351] | ++ (fold selectivity value of 10 to 100) |
| 0.2 to 2 | ∘∘∘ | COc1ccc(C[C@@H]2C[C@@H](C(=O)NCc3ccc4c(c3)nnn4C)N(C(=O)[C@H]3C[C@@H](c4cnn(C)c4)CN3)C2)cc1 [Example M05381] | +++ (fold selectivity values greater than 100) |
| > 2 | ∘∘ | COc1ccc(C[C@@H]2C[C@@H](C(=O)NCc3ccc4c(c3)nnn4C)N(C(=O)C3NCCc4cc(Cl)ccc43)C2)cc1 (stereo partly drawn) [Example M05431] | ++ (fold selectivity value of 10 to 100) |
| > 2 | ∘∘ | NCc1ccc(CNC(=O)[C@@H]2C[C@H](C3CCCCC3)CN2C(=O)[C@H](N)CCc2ccccc2)cc1 [Example M05076, (2S,4R)-1-((R)-2-Amino-4-phenyl-butyryl)-4-cyclohexyl-pyrrolidine-2-carboxylic acid 4-aminomethyl-benzylamide] | ++ (fold selectivity value of 10 to 100) |

| SMILES | Ki [1] [µM] | FXa (human)/FXIIa alpha (human) [3] | Thrombin (human)/FXIIa alpha (human) [2] |
| --- | --- | --- | --- |
| COc1ccc(C[C@@H]2C[C@@H](C(=O)NCc3ccc4c(c3)nnn4C)N(C(=O)[C@H](N)CCC(=O)N3C4CCC3COC4)C2)cc1 [Example M05411] | 0.2 to 2 | ∘∘∘ | +++ (fold selectivity values greater than 100) |
